Experimental data as given in patent US11480576B2, “Conjugated oligomer-based macrocycles for live cell imaging” (THE FLORIDA INTERNATIONAL UNIVERSITY BOARD OF TRUSTEES, priority 2019, dated 2022).

Assay: Photophysical properties of PEMCs (UV-vis absorption, fluorescence, QY)
Type: physicochemical
Method: Chemicals, including solvents, were purchased from Fisher Scientific and used as received. Deuterated solvents were purchased from Cambridge Isotope Laboratories (Cambridge, Mass.). All chemicals and solvents were purchased and used without further purification. Nuclear magnetic resonance (NMR) spectra were recorded on a 400 MHz Avance Bruker NMR spectrometer. ^1H and ^13C NMR chemical shifts are given in ppm relative to Si(CH3)4. The mass spectrometric data were conducted on a Bruker Solarix FT-ICRMS. Data for crystal structure was obtained on a Bruker D8 Quest CMOS diffractometer. The crystal was kept at T=296(2) K during data collection. Using APEX3, the structure was solved with the ShelXT 2014/5 structure solution program, using the intrinsic phasing method. The model was refined with version 2016/6 of ShelXL using full matrix least squares on F^2 minimization, using the Olex2 GUI. Analytical thin layer chromatography (TLC) was performed on TLC Silica gel 60 F254. […] UV-vis spectra were recorded on a Varian Cary 50 Bio spectrophotometer. Fluorescence spectra were obtained using a FluoroLog-3 Spectrofluorometer (Jobin Yvon/Horiba). 9,10-diphenylanthracene (QY=1.0) in cyclohexane was used as a fluorescence standard for QY determination. Fourier transform infrared (FTIR) spectra were recorded on a PerkinElmer Spectrum 100 FTIR Spectrometer. […]

COc1cc(C#Cc2ccc(C=O)cc2)c(OC)cc1C#Cc1ccc(C=O)cc1 [1a, 4,4′-((2,5-dimethoxy-1,4-phenylene)bis(ethyne-2,1-diyl))dibenzaldehyde]
Extinction coefficient (ε): 62700 M⁻¹ cm⁻¹ | Quantum Yield (QY) (9,10-Diphenylanthracene (QY = 1.0) in cyclohexane as fluorescence standard): 31%
